Assays:
[1] = test system: wild type mice; assay: Dynamic in vivo PET/CT imaging after intravenous injection; set-up: species or system mouse; settings: i.v.
Protocol: After intravenous injection of [^18F]AGAL in wild type mice, the radioactivity rapidly accumulated in key organs such as the kidneys, liver, and heart, with the kidneys having the highest peak standardized uptake value (SUV ~18) at 3 min followed by rapid washout from all organs to lower than 1 SUV by 30 min and remaining low until the end of the 90 min scan (Figure 6A,B).
Figure 6 Dynamic in vivo PET/CT imaging in wild type mice after [^18F]AGAL intravenous injection. Time course of average radioactivity concentrations (n = 4, Mean ± SD) from various organs shown for full 90 min (A) and first 10 min (B) after tracer injection. (C) Representative coronal sections of PET/CT scan images from a wild type mouse with frames averaged between 0–2 min, 2–10 min, 10–30 min, 30–60 min, and 60–90 min are shown. SUV: Standardized uptake value.
[^18F]AGAL PET imaging was performed on a dedicated small animal PET/CT scanner (Siemens Multimodality Inveon, Siemens Medical Solutions USA Inc., Knoxville, TN, USA). The wild-type mice (n = 3, male 129S6) were anesthetized with 3% isoflurane/medical air inhalation prior to the radiotracer injection and throughout the scan duration. A bolus intravenous injection (via the lateral tail vein) of [^18F]AGAL (~7.4 MBq) was administered followed by dynamic PET scans in list mode for 90 min. After the PET acquisition, a low-dose CT scan was acquired (80 kVp, 0.5 mA) for anatomical reference and to provide guidance for the delineation of selected tissues volume of interest (VOI). The acquired PET data were sorted into 0.5 mm sinogram bins and 25 time frames (4 × 15 s, 4 × 60 s, and 17 × 300 s) for image reconstruction using FORE/3D-OSEM-MAP. The reconstructed PET/CT images were analyzed with the Siemens Inveon Research Workplace software v4.0 or other appropriate software. The radioactivity retention within the selected tissue was obtained from mean voxel intensity values within the VOI and then converted to megabecquerels per milliliter using the calibration factor determined for the Inveon PET System. […]

[2] = Stability of the formulated product by analytical HPLC; format: physicochemical
Protocol: Stability of the product was monitored via analytical HPLC over time.
Approximately 2000 mCi of [^18F]fluoride was produced on a GE PETtrace 800 cyclotron and delivered to the ^18F target delivery vial of a GE FX2 N radiosynthesis module (Figure 4). The irradiated target water was passed through a pre-conditioned Sep-PAK Light QMA Cartridge to trap [^18F]fluoride, followed by elution from the cartridge into reactor 1 using 3 mg […] and 13 mg Cryptand 222 in 0.6 mL of 50% acetonitrile in water. The contents of reactor 1 were dried via azeotropic distillation using a combination of heating, helium flow, and vacuum. An additional 1 mL of acetonitrile was introduced to reactor 1 and the azeotropic drying process was repeated. The reactor temperature was then reduced to 30 °C, followed by introduction of 4-pentynyl p-tosylate (10 mg, ABX GmbH, Radeberg, Germany) in 1.0 mL acetonitrile (anhydrous). The reactor was then sealed and heated to 110 °C and allowed to react with stirring for 3 min. Reactor 1 was then opened to reactor 2, with the reactor 1 needle in the “up” position. […]

O=C(CCCCCCCn1cc(CCC[18F])nn1)N1C2C(O)C(O)C(O)C(CO)C21 (centres unmarked) [[^18F]AGAL]
bone uptake (tracer defluorination) ([1]; PET images): No bone uptake | peak standardized uptake value (SUV), kidneys ([1]; at 3 min): ~ 18 SUV | standardized uptake value after washout, all organs ([1]; by 30 min until end of 90 min scan): lower than 1 SUV | decrease in RCP ([2]; after 6 h, with sodium ascorbate in the formulation (5 mg/mL)): less than 3% | decrease in RCP ([2]; after 6 h at room temperature, 10% EtOH in saline): 5–8%

Source: PMC10609273, “Radiosynthesis and Early Evaluation of a Positron Emission Tomography Imaging Probe [^18F]AGAL Targeting Alpha-Galactosidase A Enzyme for Fabry Disease” (Molecules, 2023)
